In US20240299376A1, “METHOD OF TREATING A CONDITION USING A […] EFFECTIVE DOSE OF 1-(1-OXO-1,2-DIHYDROISOQUINOLIN-5-YL)-5-(TRIFLUOROMETHYL)-N-(2-(TRIFLUOROMETHYL)PYRIDIN-4-YL)-1H-PYRAZOLE-4-CARBOXAMIDE” (Janssen Pharmaceutica NV, priority 2021, published 2024):
Several values for one entry are separate records, joined by “and”; a condition that tells them apart may be missing. Identical values can stand only once. Entries after “also recorded” stand apart in the source; their conditions may differ. Like-named read-outs stand apart in the source and are kept apart here. Marks after values point to notes of the source that are not given here.

Columns and labels:
[1] = system: HLY-1 (Myd88/CARD11/homoz A20 mut); experiment: Anti-proliferative activity, DLBCL cell line panel; type: cell-based; settings: 192 h; antiproliferation after 8 days of treatment
[2] = FIH study 67856633LYM1001 plasma pharmacokinetics; type: in vivo, human; settings: for AUC: read-out: AUCτ
Excerpt: The study consists of a dose escalation phase (Part 1), to determine the recommended Phase 2 dose(s) (RP2D[s]), followed by an expansion phase at the RP2D(s) (Part 2). The dose escalation phase is supported using an adaptive dose escalation strategy guided by the modified continual reassessment method (mCRM) based on a Bayesian Logistic Regression Model (BLRM) with escalation with overdose control (EWOC) principle. The mCRM design allows the use of all cumulative dose-limiting toxicities (DLT) data up to the current dose cohort.
In Part 1, subjects were enrolled in cohorts of daily oral doses at 50 mg, 100 mg, 200 mg (1×200 mg or 4×50 mg), 300 mg (3×100 mg or 6×50 mg), 400 mg (2×200 mg or 8×50 mg), and 600 mg (3×200 mg), and loading dosing cohorts—400 mg loading dose once daily for 14 days, followed by 300 mg once daily, and 300 mg loading dose twice daily for 7 days followed by 300 mg once daily. In Part 2, subjects received daily oral doses of 300 mg.
In Part 1, PK data were available in subjects receiving doses of 50 mg (1×50 mg), 100 mg (2×50 mg), 200 mg (4×50 mg or 1×200 mg), 300 mg (6×50 mg or 3×100 mg), 400 mg (8×50 mg or 2×200 mg), and 600 mg (3×200 mg). Pharmacokinetic data were also available from the loading dose regimens of 400 mg (8×50 mg) loading dose once daily for 14 days followed by 300 mg (6×50 mg) once daily, and 300 mg (6×50 mg) loading dose twice daily for 7 days followed by 300 mg (6×50 mg) once daily.

[3] = Cycle 1 Day 1, 200 mg capsule, cohort 3 × 200 mg, individual values, N = 2, listed as JNJ-67856633
[4] = Cycle 2 Day 1, 50 mg capsule, cohort 6 × 50 mg (300 mg QD), mean, listed as JNJ-67856633
[5] = Cycle 2 Day 1, 200 mg capsule, cohort 200 mg, individual values, N = 2, listed as JNJ-67856633
[6] = Cycle 2 Day 1, 200 mg capsule, cohort 3 × 200 mg, individual values, N = 2, listed as JNJ-67856633
[7] = Cycle 2 Day 1, cohort 6 × 50 mg BID > QD, individual values, N = 2, listed as JNJ-67856633
[8] = Cycle 2 Day 1 / Cycle 1 Day 1, 50 mg capsule, cohort 50 mg, mean
[9] = Cycle 2 Day 1 / Cycle 1 Day 1, cohort 2 × 50 mg, mean
[10] = Cycle 2 Day 1 / Cycle 1 Day 1, cohort 2 × 200 mg food adlib, mean
[11] = Cycle 2 Day 1 / Cycle 1 Day 1, cohort 2 × 200 mg, mean
[12] = Cycle 2 Day 1 / Cycle 1 Day 1, cohort 3 × 200 mg, individual values, listed as JNJ-67856633
[13] = Cycle 2 Day 1 / Cycle 1 Day 1, cohort 4 × 50 mg, mean
[14] = Cycle 2 Day 1 / Cycle 1 Day 1, cohort 6 × 50 mg, mean
[15] = Cycle 2 Day 1 / Cycle 1 Day 1, cohort 8 × 50 mg > 6 × 50 mg, mean
[16] = Cycle 2 Day 1 / Cycle 1 Day 1, cohort 8 × 50 mg, mean

## O=C(Nc1ccnc(C(F)(F)F)c1)c1cnn(-c2cccc3c(=O)[nH]ccc23)c1C(F)(F)F [Compound A, 1-(1-oxo-1,2-dihydroisoquinolin-5-yl)-5-(trifluoromethyl)-N-[2-(trifluoromethyl)pyridin-4-yl]-1H-pyrazole-4-carboxamide]
[1]
  IC50: 8.8 µM
[2]; Cycle 1 Day 1, 50 mg capsule, cohort 6 × 50 mg (300 mg QD), mean, n = 9, listed as JNJ-67856633
  AUCτ: 152^c μg · h/mL
[2]; Cycle 1 Day 1, 50 mg capsule, cohort 6 × 50 mg (300 mg QD), mean, listed as JNJ-67856633
  Cmax: 8.81 µg/mL
[2]; Cycle 1 Day 1, 200 mg capsule, cohort 3 × 200 mg, individual values, N = 2
  Tmax: 3.00, 3.00 h
[2]; [3]
  AUCτ: 76.6 µg·h/mL
  Cmax: 4.50 µg/mL
[2]; Cycle 2 Day 1, 50 mg capsule, cohort 50 mg, mean
  Cmin: 6.85 µg/mL
[2]; Cycle 2 Day 1, 50 mg capsule, cohort 2 × 50 mg, mean
  Cmin: 15.6 µg/mL
[2]; Cycle 2 Day 1, 50 mg capsule, cohort 4 × 50 mg, Subject 100032 excluded, mean
  Cmin: 30.4^e μg/mL
[2]; Cycle 2 Day 1, 50 mg capsule, cohort 6 × 50 mg (300 mg QD), mean
  Cmin: 39.5 µg/mL
[2]; [4]
  AUCτ: 1144 µg·h/mL
  Cmax: 55.2 µg/mL
[2]; Cycle 2 Day 1, 50 mg capsule, cohort 8 × 50 mg, mean
  Cmin: 55.6 µg/mL
[2]; [5]
  Cmax: 14.5 µg/mL
  Cmin: 15.5, μg/mL and 11.4 μg/mL
  Tmax: 0.5 h
[2]; Cycle 2 Day 1, 200 mg capsule, cohort 2 × 200 mg food adlib, mean
  Cmin: 33.3 µg/mL
[2]; Cycle 2 Day 1, 200 mg capsule, cohort 2 × 200 mg, mean
  Cmin: 30.7 µg/mL
[2]; [6]
  AUCτ: 458 µg·h/mL and 1811 µg·h/mL
  Cmax: 21.2, μg/mL and 98.6 μg/mL
  Cmin: 13.5 µg/mL and 71.2 µg/mL
  Tmax: 0.00 h and 0.50 h
[2]; Cycle 2 Day 1, cohort 6 × 50 mg BID > QD (300 mg BID 7 days then 300 mg QD), individual values, N = 2
  Cmax: about 29.2 μg/mL; also recorded: about 67 μg/mL
[2]; Cycle 2 Day 1, cohort 6 × 50 mg BID > QD (300 mg BID 7 days then 300 mg QD), individual values, N = 2, listed as JNJ-67856633
  Cmax: 29.2, μg/mL and 67.0 μg/mL
[2]; Cycle 2 Day 1, cohort 6 × 50 mg BID > QD, individual values, N = 2
  AUCτ: about 651 μg · h/mL; also recorded: about 1406 μg · h/mL
[2]; [7]
  AUCτ: 651 µg·h/mL and 1406 µg·h/mL
  Cmin: 26.1, μg/mL and 50.6 μg/mL
  Tmax: 3.00, 3.00 h
[2]; Cycle 2 Day 1, cohort 8 × 50 mg > 6 × 50 mg, Subject 100070 excluded, mean
  Cmin: 55.8^g μg/mL
[2]; [8]
  ARAUC: 8.37
  ARCmax: 7.30
[2]; Cycle 2 Day 1 / Cycle 1 Day 1, 200 mg capsule, cohort 200 mg
  ARAUC: 5.51^i
[2]; Cycle 2 Day 1 / Cycle 1 Day 1, 200 mg capsule, cohort 200 mg, individual values, listed as JNJ-67856633
  ARCmax: 4.81, and 3.21
[2]; [9]
  ARAUC: 7.80
  ARCmax: 6.56
[2]; [10]
  ARAUC: 12.7
  ARCmax: 12.0
[2]; [11]
  ARAUC: 9.35
  ARCmax: 7.40
[2]; [12]
  ARAUC: 3.73 and 23.7
  ARCmax: 2.72 and 21.9
[2]; [13]
  ARAUC: 8.10
  ARCmax: 7.32
[2]; Cycle 2 Day 1 / Cycle 1 Day 1, cohort 6 × 50 mg BID > QD
  ARCmax: 10.4^j
[2]; [14]
  ARAUC: 8.50
  ARCmax: 7.32
[2]; [15]
  ARAUC: 9.80^g, h
  ARCmax: 7.7^g
[2]; [16]
  ARAUC: 12.4^f
  ARCmax: 11.3^f
[2]; human, plasma, oral, 50 mg, Cycle 1 Day 1, 50 mg capsule, cohort 50 mg, mean
  AUC: 29.1 µg·h/mL
[2]; human, plasma, oral, 50 mg, Cycle 1 Day 1, 50 mg capsule, cohort 50 mg, mean, read-out: Cmax
  Cmax: 1.6 µg/mL
[2]; human, plasma, oral, 50 mg, Cycle 1 Day 1, 50 mg capsule, cohort 50 mg, median, read-out: Tmax
  Tmax: 3 h
[2]; human, plasma, oral, 50 mg, Cycle 2 Day 1, 50 mg capsule, cohort 50 mg, mean
  AUC: 180 µg·h/mL
[2]; human, plasma, oral, 50 mg, Cycle 2 Day 1, 50 mg capsule, cohort 50 mg, mean, read-out: Cmax
  Cmax: 8.74 µg/mL
[2]; human, plasma, oral, 50 mg, Cycle 2 Day 1, 50 mg capsule, cohort 50 mg, median, read-out: Tmax
  Tmax: 2 h
[2]; human, plasma, oral, 100 mg, Cycle 1 Day 1, 50 mg capsule, cohort 2 × 50 mg, mean
  AUC: 51.4 µg·h/mL
[2]; human, plasma, oral, 100 mg, Cycle 1 Day 1, 50 mg capsule, cohort 2 × 50 mg, mean, read-out: Cmax
  Cmax: 3 µg/mL
[2]; human, plasma, oral, 100 mg, Cycle 1 Day 1, 50 mg capsule, cohort 2 × 50 mg, median, read-out: Tmax
  Tmax: 4 h
[2]; human, plasma, oral, 100 mg, Cycle 2 Day 1, 50 mg capsule, cohort 2 × 50 mg, mean
  AUC: 366 µg·h/mL
